The values that follow come from patent US10172835B2, “Anticancer agent composition” (J-Pharma Co., Ltd., priority 2014, dated 2019).

Experiment [1] concerns KO99L cells. In words: BrdU incorporation Elisa (proliferation) on KO99L cells. As to conditions: 10.0 μM, after 48 h. In kind it is cell-based, murine. The procedure: Two different assays were employed: i) In a 96-well plate format, cells (4.0±0.1×10^4 per well; 100 μL) were incubated with effectors (48 h, 37° C.; n=4 per experiment) and then WST-1 reagent (10 μL; Roche Diagnostics) added to each well of 96-well plates, incubated, and the formazan production was measured at 490 nm; and ii) cells (2.0±0.1×10^4 per well; 100 μL) were incubated with effectors (48 h, 37° C.; n=4 per experiment) and then bromodeoxyuridine reagent (10 μL/well; Roche Diagnostics) was added to each well and incubated (8 h, 37° C.). The cells were then fixed, denatured and incubated with anti-BrdU-conjugated with peroxidase (POD) antibody (100 μL/well). Colorimetric substrate (TMB: tetramethyl-benzidine; 100 μL/well) was added and BrdU incorporation quantified via optical density measurement (450 nm) which corresponds to DNA synthesis and proliferating cells.

In experiment [2] the test system is KO99L cells. In words: Mitochondrial trans-membrane potential (TMRE staining), KO99L cells. The class given is cell-based, murine. The procedure: Mitochondrial trans-membrane potential (ψm) changes as a function of apoptotic events were measured using Tetra Methyl Rhodamine Ethyl Ester Perchlorate assay (TMRE; Molecular Probes). […] Thereafter, the cells were washed twice with PBS and then stained with DAPI (Sigma-Aldrich, 1.0 μg/mL) and examined via a MACSQuant Analyser (Miltenyi Biotech) and the data evaluated via FlowJo software.

The test system of experiment [3] is mTORC1 / Akt activation. The experiment in a line: Western blot of S6RP, 4EBP1 and Akt phosphorylation, KO99L cells. As to conditions: 2.0-24 h; COMPOUND-JP 10.0 μM; MK-2206 5.0 μM; KU0063794 5.0 μM; rapamycin 10.0 nM; L-Asp, Erw 2.5 units/ml; velcade at 24 h. In kind it is cell-based, murine.
Experiment [4] relates to KO99-RJ cells. The experiment in a line: Cell death (PI staining) of KO99-RJ cells. The note with it: 48 h. The class given is cell-based, murine.
In experiment [5] the test system is CHOP / mTOR. In words: Western blot of CHOP induction and S6RP phosphorylation in KO99-RJ cells. The class given is cell-based, murine. The procedure: Cell extracts were prepared using a cell lysis buffer (50 mM HEPES, pH 7.4, 150 mM NaCl, 20 mM EDTA, 100 mM NaF, 10 mM Na3VO4, 0.5% nonyl phenoxypolyethoxylethanol (NP40) supplemented with a cocktail of protease inhibitors. After SDS-PAGE separation and transfer to nitrocellulose immunoblotting was performed using the following antibodies against: Akt (Cell Signaling Technologies, #9272), CHOP (#2895), cleaved caspase 3 (#9664), c-Myc (#9402), eIF2a (#9721), 4EBP1 (#9644), LC3A/B (#12741), PARP (#9542), pJnk (T183/Y185) (#9251), pSer235-236-S6RP (#4856), pSer473-Akt (#9271), pSer65-4EBP1 (#9451) and S6RP (#2217); Bax (Sigma-Aldrich, B8429); PUMA (Abcam, ab54288); Bak (Millipore, 06536); ATF4 (Santa Cruz Biotechnologies, sc200), GADD34 (sc8327), Hsp60 (sc-1722), Hsp90 (sc-13119) and XBP1 (sc-7160); ATF6 (Imgenex, IMG-273).

Experiment [6] concerns 44As3-11 cell derived from human scirrhous stomach cancer. The experiment in a line: MTT proliferation of 44As3-11 cells. In kind it is cell-based. The note with it: 44As3-11, culture 5 days. The procedure: The culture in the absence of COM-JP and in the presence of COM-JP with different concentrations in the culture medium of each cancer cell was continued for 5 days. Proliferation activity of the cell on each elapsed day was measured by a MTT method.

In experiment [7] the test system is HT-29 cell derived from human large intestine cancer. The experiment in a line: Tumor growth in nude mouse SOI model (HT-29 grafted onto wall of large intestine). The class given is in vivo. The text has this:
[…] was expressed in a HT-29 cell derived from human large intestine cancer, and which was grafted onto the wall of large intestine of a mouse to produce a metamouse. According to this, the quantity of the size of the tumor could be determined with time with emission intensity. In FIG. 16, the size of tumor in each treatment group was shown with a bar graph. Group 1 is a control group, Groups 2 to 4 are a group in which COM-JP was intraperitoneally administered alone at 3.1, 12.5, and 50 mg/kg weight/day every day for 4 weeks, Group 5 is a group in which CDDP was intraperitoneally administered alone at 2.5 mg/kg/day three times on day 0, day 6, and day 13, Groups 6 to 8 are a group in which Groups 2 to 4 and Group 5 were combined to be administered in combination, and Group 9 is a group in which COM-JP was orally administered at 300 mg/kg/day every day for 4 weeks.

Each structure is given as a SMILES string.

As to `Nc1cc(COc2c(Cl)cc(C[C@H](N)C(=O)O)cc2Cl)c2oc(-c3ccccc3)nc2c1` [COMPOUND-JP, O-(5-amino-2-phenylbenzoxazole-7-yl)methyl-3,5-dichloro-L-tyrosine], the “diminished cell cycling (proliferation)” value in experiment [1] is 75%. Further, the “Mitonchondrial Outer Membrane Permeabilization (MOMP)” value in experiment [2] (5.0 and 10.0 μM) was “cause MOMP”. For the same compound, the mitochondrial depolarization in experiment [2] (highest concentration tested (20.0 μM), 48 hr) worked out at 70%. For the same compound, in experiment [3], the 4EBP1 phosphorylation result was “no effect”, the “Akt phosphorylation (serine 473) / activation” value is “interfered with Akt activation” and the “S6RP phosphorylation (mTORC1 activation)” value was “affect mTORC1 activation as early as 2.0 h”. Moreover, the cell death result in experiment [4] is listed as “far less efficient”. In addition, in experiment [5], the “integrated stress response (CHOP induction)” value is recorded as “failed to trigger the integrated stress response” and the “mTOR inhibition (S6RP phosphorylation)” value is “failed to inhibit mTOR”. Further, the proliferation activity entry in experiment [6] is recorded as “dose-dependent decrease”. Further, in experiment [7] (COM-JP i.p. 3.1, 12.5, 50 mg/kg/day 4 weeks, CDDP i.p. 2.5 mg/kg/day day 0, 6, 13), the “efficacy on tumor growth, single administration” value is “not recognized”. Moreover, the “increase of the tumor” value in experiment [7] (Group 9: orally 300 mg/kg/day every day for 4 weeks, vs untreated control) was “more significantly decreased”.
